Test results published in patent US20250223328A1, “TRUNCATED DOMINANT NEGATIVE CEBPB AND CEBPD PROTEINS AND METHODS OF USE FOR DECREASING VIABILITY OF NEOPLASTIC CELLS” (The Trustees of Columbia University in the City of New York, priority 2022, published 2025).

Legend:
[1] = system: HCT116 colon cancer cells; assay: Apoptotic nuclei in HCT116 cells transfected with DNA vectors expressing the constructs; assay type: cell-based
Excerpt: FIG. 1 is a graph reporting exemplary data showing 3-box dominant negative forms of CEBPD promote apoptotic death of cancer cells. Replicate cultures of HCT116 colon cancer cells were transfected with DNA vectors expressing D-mut (a control peptide containing only the leucine zipper domain of CEBPD with all leucines in position 5 (also referred to as position “d”) of the heptad repeats mutated to glycine to suppress leucine zipper binding activity), D-1234, D-123, and D-234. Three days later, transfected cells were scored for proportion with apoptotic nuclei. Data represent means±SEM (n=4). P values vs D-mut (T-test): D-1234, p=0.0005; D-123, p=0.0014; D-234, p=0.0003.
FIG. 2 is a graph reporting exemplary data showing 2-box dominant negative forms of CEBPD promote apoptotic death of cancer cells. Replicate cultures of HCT116 cells were transfected with DNA vectors expressing D-mut, D-1234, D-12, D-23, or D-34. Three days later, transfected cells were scored for proportion with apoptotic nuclei. Data represent means±SEM (n=12 from 3 independent experiments). P values vs D-mut: D-1234, p<0.0001; D-12, p=0.056; D-23, p<0.001; D-34, p=0.0008.
FIG. 12 is a graph reporting exemplary data showing D-123EWE and D-123EKE peptides promote apoptotic death of cancer cells. Replicate cultures of HCT116 cells were transfected with an empty DNA vector or DNA vectors expressing D-123, D-123EWE, or D-123EKE. Two days later, transfected cells were scored for proportion with apoptotic nuclei. Data are pooled from two independent experiments, each with n=4. Data represent means±SEM.

[2] = system: T98G, MDA-MB-231, A375, Shep21N, and CHLA255 cell lines; assay: Cell numbers after 6 days of peptide treatment in a panel of cancer cell lines; assay type: cell-based; details: medium with 2% fetal bovine serum, five cell lines
Description: FIGS. 3A-3E are graphs reporting exemplary data showing truncated dominant negative forms of CEBPD reduce cancer cell numbers. Replicate cultures of T98G (FIG. 3A), MDA-MB-231 (FIG. 3B), A375 (FIG. 3C), Shep21N (FIG. 3D), and CHLA255 (FIG. 3E) cell lines were treated with CP-D-123 at the indicated concentrations for 6 days in culture medium containing 2% fetal bovine serum and then assessed for cell numbers. Values are given as means±SEM (N=3 replicate cultures).
FIGS. 4A-4E are graphs reporting exemplary data showing truncated dominant negative forms of CEBPD reduce cancer cell numbers. Replicate cultures of T98G (FIG. 4A), MDA-MB-231 (FIG. 4B), A375 (FIG. 4C), Shep21N (FIG. 4D), and CHLA255 (FIG. 4E) cell lines were treated with CP-D-123, CP-D-234, and Bpep (at 20 μM in T98G, MDA-MB-231, A375 only) at the indicated concentrations for 6 days in culture medium containing 2% fetal bovine serum and then assessed for cell numbers. Values are given as means±SEM (N=3 replicate cultures).

[3] = HCT116, three days after transfection, control D-mut
[4] = HCT116, two days after transfection, compared with D-123

Row | Substance | Proportion of transfected cells with apoptotic nuclei [1, 3] | also measured
1 | ENEKLHQRVEQLTR (SEQ ID NO: 56 - D-23) [Construct D-23] | active in causing apoptosis | –
2 | RQIKIWFQNRRMKWKKENEKLHQRVEQLTRDLAGLRQ (SEQ ID NO: 53 - CP-D-234) | – | Reduction of cell numbers [2]: lower and less consistent in activity than CP-D-123
3 | KLVELSAENEKLHQ (SEQ ID NO: 54 - D-12) [Construct D-12] | active in causing apoptosis | –
4 | ELVELEA KNEKLKQ EVEQLER (ELVELEAKNEKLKQEVEQLER; SEQ ID NO: 100 - D-123EKE) [Construct D-123EKE] | – | Proportion of transfected cells with apoptotic nuclei [1, 4]: activity comparable or greater to that of the D-123 peptide
5 | ELVELEA ENEKLHQ EVEQLER (ELVELEAENEKLHQEVEQLER; SEQ ID NO: 90 - D-123EWE) [Construct D-123EWE] | – | Proportion of transfected cells with apoptotic nuclei [1, 4]: activity comparable or greater to that of the D-123 peptide
6 | KLVELSAENEKLHQRVEQLTR (SEQ ID NO: 50 - D-123) [Construct D-123] | comparable rates to the full length D-1234 construct | –
7 | RVEQLTRDLAGLRQ (SEQ ID NO: 58 - D-34) [Construct D-34] | active in causing apoptosis | –
8 | ENEKLHQRVEQLTRDLAGLRQ (SEQ ID NO: 52 - D-234) [Construct D-234] | comparable rates to the full length D-1234 construct | –
